The text below walks through data of patent US20230285596A1, “COMPOSITIONS AND METHODS FOR THE TREATMENT OF NIEMANN-PICK TYPE C1 DISEASE” (Voyager Therapeutics, Inc, priority 2020, published 2023).

Data set [1] deals with animal models of NPC disease. To be noted: biweekly intrathecal (IT) injection; cited from earlier work.
Another data set concerns HEK293 cells. In words: NPC1 protein expression in HEK293 cells transfected with viral genome constructs (ELISA and Western Blot, normalized to GAPDH and transfection efficiency). As to conditions: for % over Ref. (% overexpression compared to that of the reference ITR_ITR 2): transfection, NPC1 protein vs reference ITR_ITR 2 (SEQ ID NO: 1753), Table 6; for NPC1 expression normalized to GAPDH and transfection efficiency: EF-1a promoter variants with wtNPC1, FIG. 2. In kind it is cell-based. From the text: The viral genome constructs encoding NPC1 generated, and investigated for expression of NPC1 protein in vitro. Use of different promoters (e.g., CBA promoters or variants thereof, CMV promoters and variants thereof, EF1a promoter variants) and/or codon optimized nucleotide sequences encoding the NPC1 protein (e.g., SEQ ID NO: 1750 or SEQ ID NO: 1749) (Table 6). An additional set of viral genome constructs were also investigated, testing different combinations of promoters and codon optimized sequences (Tables 7, 9 and 10).
In order to assess NPC1 expression, the viral genome constructs comprising a promoter operably linked to a transgene encoding were transfected into HEK293 cells. NPC1 protein level was determined by ELISA and Western Blot, and normalized to GAPDH control and transfection efficiency. The expression of NPC1 was calculated as percent overexpression relative to the reference construct (ITR_ITR 2 (SEQ ID NO: 1753) which comprises promoter variant 8 (SEQ ID NO: 1782) and the wild-type nucleotide sequence encoding NPC1 (SEQ ID NO: 1747)) (% over reference or % overexpression to reference).
Table 9 summarizes the constructs tested that comprise promoter variant 11 (SEQ ID NO: 1785), promoter variant 13 (SEQ ID NO: 1787), promoter variant 15 (SEQ ID NO: 1789), or promoter variant 18 (SEQ ID NO: 1791), operably linked to a transgene encoding NPC1 (wild-type or codon optimized nucleotide sequences encoding NPC1). These constructs were transfected into HEK293 cells, and the NPC1 protein expression was measured by ELISA and/or western blot and normalized to expression of a GAPDH control and transfection efficiency. The percent overexpression compared to a reference construct (ITR_ITR2 (SEQ ID NO: 1753), which comprises promoter variant 8 (SEQ ID NO: 1782) and the wild-type nucleotide sequence encoding NPC1 (SEQ ID NO: 1747)) was then calculated for each construct tested (% overexpression to reference) (Table 9, FIGS. 2-3).
(ELISA stands for enzyme-linked immunosorbent assay.)

A further data set concerns human neuronal cells. Kind of data set: NPC1 protein expression in human neuronal cells. The class given is cell-based. To be noted: human neurons, transduced; FIG. 10A. From the text: Cell-lines and reagents: Standard cell-lines are used for initial screening. This includes lines from multiple species to align with in vivo studies. Since transduction of both neuronal and non-neuronal cell types are needed in vivo, two neuronal and two non-neuronal cell types are used for in vitro screening. These cell lines include naïve neuronal SK-N-AS cells (procured from ATCC), primary neuronal cultures from NPC1^−/− mice (see below), immortalized human hepatocytes (procured from Creative Bioarray or ATCC), NPC1 patient fibroblasts (procured from Coriell) and/or iPS Cells derived from NPC1 patients (Yu, Xiao-Hua, et al. “NPC1, intracellular cholesterol trafficking and atherosclerosis.”Clinica chimica acta 429 (2014): 69-75, the disclosure of which is incorporated by reference in its entirety). Example cell lines for use in assays described herein include fibroblast cell lines, which may be procured from Coriell Institute (Camden, N.J., United States). […]
NPC1 protein expression was further assessed for constructs ITR_ITR 2, ITR_ITR 1, ITR_ITR 3, ITR_ITR 4, and ITR_ITR 5 (SEQ ID NOs: 1753, 1752, and 1754-1756, respectively) in hepatocytes (FIG. 5, left graph) and constructs ITR_ITR 2, ITR_ITR 1, ITR_ITR 3, ITR_ITR 4, ITR_ITR 5, ITR_ITR 6, and ITR_ITR 7 (SEQ ID NOs: 1753, 1752, and 1754-1758, respectively) in human neuronal cells (FIG. 5, right graph). […]

A further data set relates to NPC1 patient fibroblasts. Kind of data set: NPC1 protein expression in NPC1 patient fibroblasts. The class given is cell-based, human. As to conditions: transduced, FIG. 10B. From the text:
NPC1/2 is overexpressed in HEK 293 cells using the AAV vector of Example 1 or other method of transfection. Western Blot and ELISA detection protocols are optimized using routine experimentation to establish assays for NPC1/2 protein detection. These and additional biochemical studies are used to validate assays and establish cell lines for additional in vitro analysis. For example, Western Blot and ELISA assays can be performed and optimized using fibroblast cell lines, which may be obtained from Coriell Institute (Camden, N.J., United States). Fibroblast cell lines can be from healthy individual donors (e.g., Coriell catalog nos. GM00038, GM00302, GM00500, GM00969, and/or GM05758—referred to respectively herein as H1, H2, H3, H4, and H5 cell lines) or from diagnosed Niemann-Pick Disease, Type C1 patient donors (e.g., Coriell catalog nos. GM00110, GM03123, GM18436, and/or GM23162 referred to respectively herein as N1, N2, N3, and N4 cell lines).
NPC1 protein expression was assessed in healthy and NPC1 patient fibroblasts according to the assays described in Example 2. […] ITR_ITR 1 rescued NPC1 protein to near 100% relative to healthy fibroblasts. ITR_ITR 3 and ITR_ITR 5 rescued NPC1 protein to 100% or greater relative to healthy fibroblasts. […]

[2] abbreviates: % overexpression vs reference, Table 8.

For the molecule 2-hydroxypropyl-β-cyclodextrin, in data set [1], the “efficacy in animal models of NPC disease” value was “effectively delay the onset of neurological signs, ameliorate cerebellar and liver dysfunction, and prolong lifespan”.

Regarding `CCCCN1C[C@H](O)[C@@H](O)[C@H](O)[C@H]1CO` [Miglustat], in data set [1], the “efficacy in animal models of NPC disease” value is “effectively delay the onset of neurological signs, ameliorate cerebellar and liver dysfunction, and prolong lifespan”.

Turning to “ITR_ITR 7: Viral genome SEQ ID NO: 1758: short CBA promoter (SEQ ID NO: 1735); WT NPC1 protein coding sequence”, in the data set with HEK293 cells, the “% over Ref. (% overexpression compared to that of the reference ITR_ITR 2)” value was −15%. Same read-out and setting: for “ITR_ITR 41: Viral genome SEQ ID NO: 1833: CMVie enhancer (SEQ ID NO: 1737); short CBA promoter; WT NPC1 protein coding sequence” the value was 165%. As to “wtNPC1: Wild type Human NPC1 Coding Sequence, SEQ ID NO: 1747 [reference compound]”, in the data set with HEK293 cells (setting [2]), the “NPC1 expression, CBA promoter with intron” value is recorded as 72%; the “NPC1 expression, CBA promoter without intron” value was −15%; the “NPC1 expression, CMV promoter with intron” value turned out to be 356%; the “NPC1 expression, CMV promoter without intron” value is 203%. Also, the “NPC1 expression, Promoter Variant 8 (SEQ ID NO: 1782) with intron” value with HEK293 cells (setting [2]) came to 311%.

B1: Promoter Variant 11: EF-1a promoter variant, 236 nt, SEQ ID NO: 1785 (nucleic acid)
DNA: CGTGAGGCTCCGGTGCCCGTCAGTGGGCAGAGCGCACATCGCCCACAGTCCCCGAGAAGTTGGGGGGAGGGGTCGGCAATTGAACCGGTGCCTAGAGAAGGTGGCGCGGGGTAAACTGGGAAAGTGATGTCGTGTACTGGCTCCGCCTTTTTCCCGAGGGTGGGGGAGAACCGTATATAAGTGCAGTAGTCGCCGTGAACGTTCTTTTTCGCAACGGGTTTGCCGCCAGAACACAG
Turning to B1, the “NPC1 expression normalized to GAPDH and transfection efficiency” value (shortened to “NPC1 expression normalized”) with HEK293 cells is recorded as “increased NPC1 expression relative to the ITR_ITR 2 reference construct”. Further, the “NPC1 expression (NPC1/B-actin)” value with human neuronal cells is “increased expression of NPC1 compared to the CMV promoter”.

B2: Promoter Variant 18: EF-1a promoter variant, 263 nt, SEQ ID NO: 1791 (nucleic acid)
DNA: GTCATCACTGAGGTGGAGAAGAGCATGCGTGAGGCTCCGGTGCCCGTCAGTGGGCAGAGCGCACATCGCCCACAGTCCCCGAGAAGTTGGGGGGAGGGGTCGGCAATTGAACCGGTGCCTAGAGAAGGTGGCGCGGGGTAAACTGGGAAAGTGATGTCGTGTACTGGCTCCGCCTTTTTCCCGAGGGTGGGGGAGAACCGTATATAAGTGCAGTAGTCGCCGTGAACGTTCTTTTTCGCAACGGGTTTGCCGCCAGAACACAG
For B2, the “NPC1 expression normalized” value in the data set with HEK293 cells is recorded as “increased NPC1 expression relative to the ITR_ITR 2 reference construct”.

B3: CMV promoter: short CMV promoter, 205 nt, SEQ ID NO: 1736 (nucleic acid)
DNA: GTGATGCGGTTTTGGCAGTACATCAATGGGCGTGGATAGCGGTTTGACTCACGGGGATTTCCAAGTCTCCACCCCATTGACGTCAATGGGAGTTTGTTTTGGCACCAAAATCAACGGGACTTTCCAAAATGTCGTAACAACTCCGCCCCATTGACGCAAATGGGCGGTAGGCGTGTACGGTGGGAGGTCTATATAAGCAGAGCTC
Take B3: in the data set on NPC1 patient fibroblasts, the “NPC1 expression (NPC1/B-actin)” value was “increased expression of NPC1 compared to Promoter Variant 11”.

B4: Promoter Variant 15: EF-1a promoter variant, 252 nt, SEQ ID NO: 1789 (nucleic acid)
DNA: GGTGGAGAAGAGCATGCGTGAGGCTCCGGTGCCCGTCAGTGGGCAGAGCGCACATCGCCCACAGTCCCCGAGAAGTTGGGGGGAGGGGTCGGCAATTGAACCGGTGCCTAGAGAAGGTGGCGCGGGGTAAACTGGGAAAGTGATGTCGTGTACTGGCTCCGCCTTTTTCCCGAGGGTGGGGGAGAACCGTATATAAGTGCAGTAGTCGCCGTGAACGTTCTTTTTCGCAACGGGTTTGCCGCCAGAACACAG
In the case of B4, the “NPC1 expression normalized” value in the data set on HEK293 cells was “increased NPC1 expression relative to the ITR_ITR 2 reference construct”.

B5: Promoter Variant 13: EF-1a promoter variant, 241 nt, SEQ ID NO: 1787 (nucleic acid)
DNA: GCATGCGTGAGGCTCCGGTGCCCGTCAGTGGGCAGAGCGCACATCGCCCACAGTCCCCGAGAAGTTGGGGGGAGGGGTCGGCAATTGAACCGGTGCCTAGAGAAGGTGGCGCGGGGTAAACTGGGAAAGTGATGTCGTGTACTGGCTCCGCCTTTTTCCCGAGGGTGGGGGAGAACCGTATATAAGTGCAGTAGTCGCCGTGAACGTTCTTTTTCGCAACGGGTTTGCCGCCAGAACACAG
For the molecule B5, the “NPC1 expression normalized” value with HEK293 cells is “increased NPC1 expression relative to the ITR_ITR 2 reference construct”.
